The target in the assay is T1, SHP2 protein (Homo sapiens, UniProt Q06124).
T1 sequence (Q06124 1-593): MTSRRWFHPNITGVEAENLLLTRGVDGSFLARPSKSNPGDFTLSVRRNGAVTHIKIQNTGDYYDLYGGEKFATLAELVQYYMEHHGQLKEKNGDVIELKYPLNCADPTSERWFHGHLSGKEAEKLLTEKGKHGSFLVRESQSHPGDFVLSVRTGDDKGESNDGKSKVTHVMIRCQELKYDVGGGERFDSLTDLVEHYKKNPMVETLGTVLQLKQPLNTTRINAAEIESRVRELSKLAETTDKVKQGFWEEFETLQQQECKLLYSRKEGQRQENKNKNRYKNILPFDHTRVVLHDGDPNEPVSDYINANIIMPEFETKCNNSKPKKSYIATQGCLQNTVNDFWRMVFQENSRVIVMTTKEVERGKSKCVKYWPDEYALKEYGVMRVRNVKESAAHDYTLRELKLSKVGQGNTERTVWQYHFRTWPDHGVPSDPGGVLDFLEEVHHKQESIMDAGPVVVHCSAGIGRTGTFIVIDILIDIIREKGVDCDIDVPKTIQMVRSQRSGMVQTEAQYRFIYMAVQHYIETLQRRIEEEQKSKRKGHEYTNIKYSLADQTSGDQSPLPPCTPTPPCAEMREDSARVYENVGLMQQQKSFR
Nature of the assay: Measurement of SHP2 protein degradation in KYSE-520 cells (western blotting). Type of assay: cell-based. On the set-up: endogenous in cells. Particulars: 24 hours. As for the experimental part:
Experimental Example 1: Measurement of SHP2 Protein Degradation in KYSE-520 Cells
KYSE-520 cells were treated with the synthesized Example compound, and the amount of SHP2 protein present in the cells was measured using western blotting detection. The protocol of the experiment conducted using KYSE-520 cells was as follows:
[Culture] KYSE-520 cells resuspended in RPMI1640 MEDIUM (Hyclone, SH30027.01) containing 5% FBS (Hyclone, SV30207.02) and 1% Penicillin-streptomycin (Welgene, LS 202-02) were seeded at a density of 2.5×10^5/well in a 6-well plate in an amount of 2 ml each and incubated for 2 days.
[Compound treatment] […] After 24 hours, cells were harvested. For the negative control group, DMSO diluted 1/10 to the media (3 mL DMSO+27 mL media) was added.
[Cell Lysis and Protein Quantification] Lysis buffer was prepared as follows: […] of RIPA buffer (Biosesang, RC2038-050-00)+0.5 mM PMSF (SIGMA, P7626)+1× Protease/Phosphatase Inhibitor (Cell signaling, 5872S) per well was added and placed on ice for 30 minutes (vortexing at 0 and 30 minutes, respectively). After sonication process (10 seconds pulse, 30 seconds rest, 5 cycles, 70% amplification), centrifugation (15000 g, 15 min, 4° C.) was performed, and then only the supernatant was taken and transferred to a new microtube. The sample was diluted ¼ with RIPA buffer in a 96-well plate, and mixed with A:B=50:1 of the BCA Protein Assay Kit (iNtRON, 21071). […] each of the mixture was left at 37° C. for 30 minutes, and cooled for 10 minutes. Then, absorbance was measured at 562 nm with the SYNERGY H1 microplate reader from BioTek. After making a sample by quantifying the protein with the measured value, boiling was performed at 70° C. for 10 minutes. At this time, the sample buffer used was a mixture of NuPAGE or Bolt 4× sample buffer (Invitrogen) and each 10× sample reducing agent according to the gel to be used, and RIPA buffer was used for protein dilution.
[Western blotting detection method] The same amount of sample was loaded on NuPAGE or Bolt Bis-tris 4-12% gradient gel and run (200 V, 35 minutes). It was transferred to 0.2 mm NC membrane with Trans-blot Turbo (BIO-RAD) (1.3 A constant, 25 V limit, 15 minutes). Blocking was performed at room temperature for 1 hour with Skim milk or Intercept Blocking Buffer (LI-COR, 927-60001):0.1% TBST=1:1. Anti SHPTP2 Mouse (1:500 in 5% Skim milk/TBST, size: 70 kDa, Santacruz sc-7384) was incubated overnight at 4° C., and Anti GAPDH Rabbit (1:2,000 in 5% BSA/0.2% TBST, size: 37 kDa, CST #2118) was incubated at room temperature for 1 hour 30 minutes or 3 hours. It was washed 3 times for 5 minutes each with 0.2% TBST washing buffer. Secondary antibody Anti-Rabbit IgG (1:5,000 in 5% Skim milk/0.2% TBST, CST), and IRDye® 680RD Goat anti-Rabbit IgG Secondary Antibody (1:10,000 in 5% BSA/0.2% TBST, LI-COR 926-68071) were incubated for 45 minutes on a rocker at room temperature. It was washed 5 times for 5 minutes each with 0.2% TBST washing buffer and detected with LI-COR's Odyssey. At this time, SHPTP2 was detected using SuperSignal West Pico PLUS Chemiluminescent Substrate, and house-keeping genes were also detected.
In the results of Table 4 below, Compounds 1-7, 13-19, and 21-26 are results in KYSE-520 cells, and the others are results in MV-4-11 cells.

The values below come from patent publication US20250230154A1, “COMPOUND HAVING SHP2 PROTEIN DEGRADING ACTIVITY, AND MEDICAL USES THEREOF” (UBIX THERAPEUTICS, INC., priority 2021, published 2025).

Regarding `Cc1ncsc1-c1ccc(CNC(=O)[C@@H]2C[C@@H](O)CN2C(=O)[C@@H](NC(=O)C2(F)CC2)C(C)(C)C)c(OCCCCCCN2CCC(CCCC(=O)Nc3cccc(Sc4cnc(N5CCC(C)(CN)CC5)cn4)c3Cl)CC2)c1` [Example 18, (2S,4R)—N-(2-((6-(4-(4-((3-((5-(4-(aminomethyl)-4-methylpiperidin-1-yl)pyrazin-2-yl)thio)-2-chlorophenyl)amino)-4-oxobutyl)piperidin-1-yl)hexyl)oxy)-4-(4-methylthiazol-5-yl)benzyl)-1-((S)-2-(1-fluorocyclopropane-1-carboxamido)-3,3-dimethylbutanoyl)-4-hydroxypyrrolidine-2-carboxamide], the “SHP2 degradation (%) 10 nM” value is −9.0%, the “SHP2 degradation (%) 100 nM” value is 56.9% and the “SHP2 degradation (%) 1000 nM” value is listed as 91.8%.

As for `Cc1ncsc1-c1ccc(CNC(=O)[C@@H]2C[C@@H](O)CN2C(=O)[C@@H](NC(=O)C2(F)CC2)C(C)(C)C)c(OCCCCCCN2CC(C(=O)Nc3cccc(Sc4cnc(N5CCC(C)(CN)CC5)cn4)c3Cl)C2)c1` [Example 19, (2S,4R)—N-(2-((6-(3-((3-((5-(4-(aminomethyl)-4-methylpiperidin-1-yl)pyrazin-2-yl)thio)-2-chlorophenyl)carbamoyl)azetidin-1-yl)hexyl)oxy)-4-(4-methylthiazol-5-yl)benzyl)-1-((S)-2-(1-fluorocyclopropane-1-carboxamido)-3,3-dimethylbutanoyl)-4-hydroxypyrrolidine-2-carboxamide], the “SHP2 degradation (%) 100 nM” value was determined as 31.5% and the “SHP2 degradation (%) 1000 nM” value came out at 78.0%.

Consider `Cc1ncsc1-c1ccc(CNC(=O)[C@@H]2C[C@@H](O)CN2C(=O)[C@@H](NC(=O)C2(F)CC2)C(C)(C)C)c(OCCCC(=O)N2CCC(C(=O)Nc3cccc(Sc4cnc(N5CCC(C)(CN)CC5)cn4)c3Cl)CC2)c1` [Example 21, N-(3-((5-(4-(aminomethyl)-4-methylpiperidin-1-yl)pyrazin-2-yl)thio)-2-chlorophenyl)-1-(4-(2-(((2S,4R)-1-((S)-2-(1-fluorocyclopropane-1-carboxamido)-3,3-dimethylbutanoyl)-4-hydroxypyrrolidine-2-carboxamido)methyl)-5-(4-methylthiazol-5-yl)phenoxy)butanoyl)piperidine-4-carboxamide], for which the “SHP2 degradation (%) 10 nM” value came to 11.7%, the “SHP2 degradation (%) 100 nM” value is on record as 51.7% and the “SHP2 degradation (%) 1000 nM” value was determined as 66.6%.

For the molecule `Cc1ncsc1-c1ccc(CNC(=O)[C@@H]2C[C@@H](O)CN2C(=O)[C@@H](NC(=O)C2(F)CC2)C(C)(C)C)c(OCCCC(=O)N2CCC(CC(=O)Nc3cccc(Sc4cnc(N5CCC(C)(CN)CC5)cn4)c3Cl)CC2)c1` [Example 23, (2S,4R)—N-(2-(4-(4-(2-((3-((5-(4-(aminomethyl)-4-methylpiperidin-1-yl)pyrazin-2-yl)thio)-2-chlorophenyl)amino)-2-oxoethyl)piperidin-1-yl)-4-oxobutoxy)-4-(4-methylthiazol-5-yl)benzyl)-1-((S)-2-(1-fluorocyclopropane-1-carboxamido)-3,3-dimethylbutanoyl)-4-hydroxypyrrolidine-2-carboxamide], the “SHP2 degradation (%) 10 nM” value was 8.4%, the “SHP2 degradation (%) 100 nM” value is recorded as 44.3% and the “SHP2 degradation (%) 1000 nM” value is recorded as 64.2%.

Take `Cc1ncsc1-c1ccc(CNC(=O)[C@@H]2C[C@@H](O)CN2C(=O)[C@@H](NC(=O)C2(F)CC2)C(C)(C)C)c(OCCCC(=O)N2CCC(CCC(=O)Nc3cccc(Sc4cnc(N5CCC(C)(CN)CC5)cn4)c3Cl)CC2)c1` [Example 24, (2S,4R)—N-(2-(4-(4-(3-((3-((5-(4-(aminomethyl)-4-methylpiperidin-1-yl)pyrazin-2-yl)thio)-2-chlorophenyl)amino)-3-oxopropyl)piperidin-1-yl)-4-oxobutoxy)-4-(4-methylthiazol-5-yl)benzyl)-1-((S)-2-(1-fluorocyclopropane-1-carboxamido)-3,3-dimethylbutanoyl)-4-hydroxypyrrolidine-2-carboxamide]: the “SHP2 degradation (%) 10 nM” value is 15.1%, the “SHP2 degradation (%) 100 nM” value worked out at 52.1% and the “SHP2 degradation (%) 1000 nM” value was determined as 74.7%.

Regarding `Cc1ncsc1-c1ccc(CNC(=O)[C@@H]2C[C@@H](O)CN2C(=O)[C@@H](NC(=O)C2(F)CC2)C(C)(C)C)c(OCCCC(=O)N2CCC(CCCC(=O)Nc3cccc(Sc4cnc(N5CCC(C)(CN)CC5)cn4)c3Cl)CC2)c1` [Example 25, (2S,4R)—N-(2-(4-(4-(4-((3-((5-(4-(aminomethyl)-4-methylpiperidin-1-yl)pyrazin-2-yl)thio)-2-chlorophenyl)amino)-4-oxobutyl)piperidin-1-yl)-4-oxobutoxy)-4-(4-methylthiazol-5-yl)benzyl)-1-((S)-2-(1-fluorocyclopropane-1-carboxamido)-3,3-dimethylbutanoyl)-4-hydroxypyrrolidine-2-carboxamide], the “SHP2 degradation (%) 100 nM” value is reported as 61.8% and the “SHP2 degradation (%) 1000 nM” value is recorded as 94.7%.

Consider `Cc1ncsc1-c1ccc(CNC(=O)[C@@H]2C[C@@H](O)CN2C(=O)[C@@H](NC(=O)C2(F)CC2)C(C)(C)C)c(OCCCCCC(=O)N2CCC(CCCC(=O)Nc3cccc(Sc4cnc(N5CCC(C)(CN)CC5)cn4)c3Cl)CC2)c1` [Example 26, (2S,4R)—N-(2-((6-(4-(4-((3-((5-(4-(aminomethyl)-4-methylpiperidin-1-yl)pyrazin-2-yl)thio)-2-chlorophenyl)amino)-4-oxobutyl)piperidin-1-yl)-6-oxohexyl)oxy)-4-(4-methylthiazol-5-yl)benzyl)-1-((S)-2-(1-fluorocyclopropane-1-carboxamido)-3,3-dimethylbutanoyl)-4-hydroxypyrrolidine-2-carboxamide], for which the “SHP2 degradation (%) 10 nM” value was determined as 40.6%, the “SHP2 degradation (%) 100 nM” value worked out at 83.2% and the “SHP2 degradation (%) 1000 nM” value worked out at 95.0%.
